Values of other authors as cited in patent US20110144047A1, “COMBINED METHOD FOR PREDICTING THE RESPONSE TO AN ANTI-CANCER THERAPY” (DAKO DENMARK A/S, priority 2008, published 2011).

System: murine fibro sarcoma cells derived from TIMP-1 gene-deficient mice
Settings: in vitro; previously published by the inventors

COc1cc([C@@H]2c3cc4c(cc3[C@@H](O[C@@H]3O[C@@H]5CO[C@@H](C)O[C@H]5[C@H](O)[C@H]3O)[C@H]3COC(=O)[C@H]23)OCO4)cc(OC)c1O [etoposide]
sensitivity of TIMP-1 gene-deficient cells compared with wild-type cells expressing TIMP-1: significantly more sensitive
